Measurements published in the supplement of paper PMC10307832.

Assays:
Test in all cases: relative viability (nuclei count vs DMSO), 5 days (fraction); higher = more cells survive
ABC-1 = test system: ABC-1
Summary of the method: (§1)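 Medians of duplicate plates are given as relative viability. That measure is the nuclei count in treated wells divided by the count in vehicle wells. Counts were taken on 4× images of lung cancer cell lines in 1536-well plates, 5 days after pin-tool dosing the day after seeding with one drug alone or a fixed anchor-drug dose plus five library-drug doses (not always all listed) in √10 steps.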

CAL-12T = test system: CAL-12T
Summary of the method: as §1

COR-L23 = test system: COR-L23
Summary of the method: as §1

EKVX = test system: EKVX
Summary of the method: as §1

H3255 = test system: H3255
Summary of the method: as §1

HCC-15 = test system: HCC-15
Summary of the method: as §1

HCC-827 = test system: HCC-827
Summary of the method: as §1

LK-2 = test system: LK-2
Summary of the method: as §1

NCI-H1355 = test system: NCI-H1355
Summary of the method: as §1

NCI-H1437 = test system: NCI-H1437
Summary of the method: as §1

NCI-H1563 = test system: NCI-H1563
Summary of the method: as §1

NCI-H1650 = test system: NCI-H1650
Summary of the method: as §1

NCI-H1734 = test system: NCI-H1734
Summary of the method: as §1

NCI-H2228 = test system: NCI-H2228
Summary of the method: as §1

NCI-H2342 = test system: NCI-H2342
Summary of the method: as §1

NCI-H2405 = test system: NCI-H2405
Summary of the method: as §1

NCI-H322M = test system: NCI-H322M
Summary of the method: as §1

NCI-H520 = test system: NCI-H520
Summary of the method: as §1

NCI-H661 = test system: NCI-H661
Summary of the method: as §1

PC-14 = test system: PC-14
Summary of the method: as §1

PC-3 [JPC-3] = test system: PC-3 [JPC-3]
Summary of the method: as §1

RERF-LC-KJ = test system: RERF-LC-KJ
Summary of the method: as §1

SW 1573 = test system: SW 1573
Summary of the method: as §1

`C=C1C(=O)O[C@@H](CCCCCCCC)[C@@H]1C(=O)O` [C-75] + COc1cccc2cc(-c3nc([C@H]4CC[C@H](C(=O)O)CC4)n4ncnc(N)c34)[nH]c12 [OSI-027] (partner 0.5 µM) showed a relative viability (ABC-1; first compound 0.08 µM) of 0.498, a relative viability (ABC-1; first compound 0.253 µM) of 0.587 and a relative viability (ABC-1; first compound 0.8 µM) of 0.479. The relative viability (ABC-1; first compound 2.53 µM) was 0.379, the relative viability (ABC-1; first compound 8 µM) was 0.35 and the relative viability (CAL-12T; first compound 0.08 µM) was 0.862. It also gave a relative viability (CAL-12T; first compound 0.253 µM) of 1.06, a relative viability (CAL-12T; first compound 0.8 µM) of 0.697 and a relative viability (CAL-12T; first compound 2.53 µM) of 0.592. It also gave a relative viability (CAL-12T; first compound 8 µM) of 0.63, a relative viability (COR-L23; first compound 0.08 µM) of 0.74 and a relative viability (COR-L23; first compound 0.253 µM) of 0.886. It also gave a relative viability (COR-L23; first compound 0.8 µM) of 0.767, a relative viability (COR-L23; first compound 2.53 µM) of 0.676 and a relative viability (COR-L23; first compound 8 µM) of 0.701. The relative viability (EKVX; first compound 0.08 µM) was 0.699, the relative viability (EKVX; first compound 0.253 µM) was 0.979 and the relative viability (EKVX; first compound 0.8 µM) was 0.651. The relative viability (EKVX; first compound 8 µM) was 0.68, the relative viability (H3255; first compound 0.08 µM) was 0.589 and the relative viability (H3255; first compound 0.253 µM) was 0.7. For the same compound, the relative viability (H3255; first compound 0.8 µM) was 0.481, the relative viability (H3255; first compound 2.53 µM) was 0.562 and the relative viability (H3255; first compound 8 µM) was 0.633. For the same compound, the relative viability (HCC-15; first compound 0.08 µM) was 0.628, the relative viability (HCC-15; first compound 0.253 µM) was 0.707 and the relative viability (HCC-15; first compound 0.8 µM) was 0.655. The relative viability (HCC-15; first compound 2.53 µM) was 0.502, the relative viability (HCC-15; first compound 8 µM) was 0.636 and the relative viability (HCC-827; first compound 0.08 µM) was 0.757. For the same compound, the relative viability (HCC-827; first compound 0.253 µM) was 0.826, the relative viability (HCC-827; first compound 0.8 µM) was 0.751 and the relative viability (HCC-827; first compound 2.53 µM) was 0.597. For the same compound, the relative viability (HCC-827; first compound 8 µM) was 0.758, the relative viability (LK-2; first compound 0.08 µM) was 0.209 and the relative viability (LK-2; first compound 0.253 µM) was 0.212. For the same compound, the relative viability (LK-2; first compound 0.8 µM) was 0.222, the relative viability (LK-2; first compound 2.53 µM) was 0.16 and the relative viability (LK-2; first compound 8 µM) was 0.145. It also gave a relative viability (NCI-H1355; first compound 0.08 µM) of 0.49, a relative viability (NCI-H1355; first compound 0.253 µM) of 0.441 and a relative viability (NCI-H1355; first compound 0.8 µM) of 0.391. The relative viability (NCI-H1355; first compound 2.53 µM) was 0.348, the relative viability (NCI-H1355; first compound 8 µM) was 0.5 and the relative viability (NCI-H1437; first compound 0.08 µM) was 0.842. It also gave a relative viability (NCI-H1437; first compound 0.253 µM) of 0.871, a relative viability (NCI-H1437; first compound 0.8 µM) of 0.867 and a relative viability (NCI-H1437; first compound 2.53 µM) of 0.57. The relative viability (NCI-H1437; first compound 8 µM) was 0.914, the relative viability (NCI-H1563; first compound 0.08 µM) was 0.806 and the relative viability (NCI-H1563; first compound 0.253 µM) was 0.856. For the same compound, the relative viability (NCI-H1563; first compound 0.8 µM) was 0.791, the relative viability (NCI-H1563; first compound 2.53 µM) was 0.718 and the relative viability (NCI-H1563; first compound 8 µM) was 0.79. For the same compound, the relative viability (NCI-H1650; first compound 0.08 µM) was 0.743, the relative viability (NCI-H1650; first compound 0.253 µM) was 0.856 and the relative viability (NCI-H1650; first compound 2.53 µM) was 0.442. It also gave a relative viability (NCI-H1650; first compound 8 µM) of 0.851, a relative viability (NCI-H1734; first compound 0.08 µM) of 0.593 and a relative viability (NCI-H1734; first compound 0.253 µM) of 0.621. For the same compound, the relative viability (NCI-H1734; first compound 0.8 µM) was 0.481, the relative viability (NCI-H1734; first compound 2.53 µM) was 0.323 and the relative viability (NCI-H1734; first compound 8 µM) was 0.455. It also gave a relative viability (NCI-H2228; first compound 0.08 µM) of 0.534, a relative viability (NCI-H2228; first compound 0.253 µM) of 0.686 and a relative viability (NCI-H2228; first compound 0.8 µM) of 0.398. It also gave a relative viability (NCI-H2228; first compound 2.53 µM) of 0.302, a relative viability (NCI-H2228; first compound 8 µM) of 0.517 and a relative viability (NCI-H2342; first compound 0.08 µM) of 0.582. It also gave a relative viability (NCI-H2342; first compound 0.253 µM) of 0.656, a relative viability (NCI-H2342; first compound 0.8 µM) of 0.582 and a relative viability (NCI-H2342; first compound 2.53 µM) of 0.628. The relative viability (NCI-H2342; first compound 8 µM) was 0.591, the relative viability (NCI-H2405; first compound 0.08 µM) was 0.7 and the relative viability (NCI-H2405; first compound 0.253 µM) was 0.63. The relative viability (NCI-H2405; first compound 0.8 µM) was 0.657, the relative viability (NCI-H2405; first compound 2.53 µM) was 0.519 and the relative viability (NCI-H2405; first compound 8 µM) was 0.698. For the same compound, the relative viability (NCI-H322M; first compound 0.08 µM) was 0.543, the relative viability (NCI-H322M; first compound 0.253 µM) was 0.7 and the relative viability (NCI-H322M; first compound 0.8 µM) was 0.583. It also gave a relative viability (NCI-H322M; first compound 2.53 µM) of 0.478, a relative viability (NCI-H322M; first compound 8 µM) of 0.588 and a relative viability (NCI-H520; first compound 0.08 µM) of 0.237. It also gave a relative viability (NCI-H520; first compound 0.253 µM) of 0.338, a relative viability (NCI-H520; first compound 0.8 µM) of 0.242 and a relative viability (NCI-H520; first compound 2.53 µM) of 0.221. For the same compound, the relative viability (NCI-H520; first compound 8 µM) was 0.294, the relative viability (NCI-H661; first compound 0.08 µM) was 0.697 and the relative viability (NCI-H661; first compound 0.253 µM) was 0.71. It also gave a relative viability (NCI-H661; first compound 0.8 µM) of 0.72, a relative viability (NCI-H661; first compound 2.53 µM) of 0.635 and a relative viability (NCI-H661; first compound 8 µM) of 0.736. It also gave a relative viability (PC-14; first compound 0.08 µM) of 0.774, a relative viability (PC-14; first compound 0.253 µM) of 0.958 and a relative viability (PC-14; first compound 0.8 µM) of 0.687. For the same compound, the relative viability (PC-14; first compound 2.53 µM) was 0.767, the relative viability (PC-14; first compound 8 µM) was 0.856 and the relative viability (PC-3 [JPC-3]; first compound 0.08 µM) was 0.772. For the same compound, the relative viability (PC-3 [JPC-3]; first compound 0.253 µM) was 0.806, the relative viability (PC-3 [JPC-3]; first compound 0.8 µM) was 0.736 and the relative viability (PC-3 [JPC-3]; first compound 2.53 µM) was 0.668. It also gave a relative viability (PC-3 [JPC-3]; first compound 8 µM) of 0.749, a relative viability (RERF-LC-KJ; first compound 0.08 µM) of 0.713 and a relative viability (RERF-LC-KJ; first compound 0.253 µM) of 0.63. For the same compound, the relative viability (RERF-LC-KJ; first compound 0.8 µM) was 0.514, the relative viability (RERF-LC-KJ; first compound 2.53 µM) was 0.552 and the relative viability (RERF-LC-KJ; first compound 8 µM) was 0.561. It also gave a relative viability (SW 1573; first compound 0.08 µM) of 0.705, a relative viability (SW 1573; first compound 0.253 µM) of 0.709 and a relative viability (SW 1573; first compound 0.8 µM) of 0.555. It also gave a relative viability (SW 1573; first compound 2.53 µM) of 0.634 and a relative viability (SW 1573; first compound 8 µM) of 0.519.
